Entries after “also recorded” stand apart in the source; their conditions may differ.
Key:
HDAC1 enzyme = target: T1, HDAC1 enzyme (Homo sapiens, UniProt Q13547); assay: HDAC1 enzyme inhibitory assay (HDAC-Glo I/II Assay kit); type: biochemical; conditions: 1 μM test compound; for inhibition at 1 µM: read-out: HDAC1 inhibitory rate (%) (1 μM)
T1 construct: prepared by transducing full length HDAC1 and HDAC6 genes into Sf-9 insect cells; GST; purchased SignalChem; host or cells: Sf-9 insect cells
T1 sequence (Q13547 whole entry): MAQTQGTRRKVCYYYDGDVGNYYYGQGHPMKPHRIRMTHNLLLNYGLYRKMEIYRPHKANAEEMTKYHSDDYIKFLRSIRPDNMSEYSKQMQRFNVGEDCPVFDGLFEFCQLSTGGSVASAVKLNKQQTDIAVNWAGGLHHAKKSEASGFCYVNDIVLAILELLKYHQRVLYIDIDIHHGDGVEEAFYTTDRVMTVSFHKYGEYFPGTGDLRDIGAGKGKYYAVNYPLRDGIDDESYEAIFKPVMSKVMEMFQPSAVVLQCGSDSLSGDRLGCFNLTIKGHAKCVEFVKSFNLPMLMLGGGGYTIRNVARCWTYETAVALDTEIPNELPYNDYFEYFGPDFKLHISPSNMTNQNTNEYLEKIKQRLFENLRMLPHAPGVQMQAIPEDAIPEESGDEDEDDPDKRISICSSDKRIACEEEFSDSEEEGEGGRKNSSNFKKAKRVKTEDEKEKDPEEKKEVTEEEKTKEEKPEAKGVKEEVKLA
How it was run: (§1)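 Sf-9-expressed GST-purified full-length HDAC1/HDAC6; cpd + enzyme 60 min RT, 24 mM Tris-HCl pH 7.5, 135 mM NaCl, 0.6 mM glutathione, 0.01% Tween-20; substrate-developer 20 min RT; luminescence; no-enzyme wells = 100% inhibition.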

HDAC6 enzyme = target: T2, HDAC6 enzyme (Homo sapiens, UniProt Q9UBN7); assay: HDAC6 enzyme inhibitory assay (HDAC-Glo I/II Assay kit); type: biochemical; conditions: 1 μM test compound; for inhibition at 1 µM: read-out: HDAC6 inhibitory rate (%) (1 μM)
T2 construct: prepared by transducing full length HDAC1 and HDAC6 genes into Sf-9 insect cells; GST; purchased SignalChem; host or cells: Sf-9 insect cells
T2 sequence (Q9UBN7 1-1215): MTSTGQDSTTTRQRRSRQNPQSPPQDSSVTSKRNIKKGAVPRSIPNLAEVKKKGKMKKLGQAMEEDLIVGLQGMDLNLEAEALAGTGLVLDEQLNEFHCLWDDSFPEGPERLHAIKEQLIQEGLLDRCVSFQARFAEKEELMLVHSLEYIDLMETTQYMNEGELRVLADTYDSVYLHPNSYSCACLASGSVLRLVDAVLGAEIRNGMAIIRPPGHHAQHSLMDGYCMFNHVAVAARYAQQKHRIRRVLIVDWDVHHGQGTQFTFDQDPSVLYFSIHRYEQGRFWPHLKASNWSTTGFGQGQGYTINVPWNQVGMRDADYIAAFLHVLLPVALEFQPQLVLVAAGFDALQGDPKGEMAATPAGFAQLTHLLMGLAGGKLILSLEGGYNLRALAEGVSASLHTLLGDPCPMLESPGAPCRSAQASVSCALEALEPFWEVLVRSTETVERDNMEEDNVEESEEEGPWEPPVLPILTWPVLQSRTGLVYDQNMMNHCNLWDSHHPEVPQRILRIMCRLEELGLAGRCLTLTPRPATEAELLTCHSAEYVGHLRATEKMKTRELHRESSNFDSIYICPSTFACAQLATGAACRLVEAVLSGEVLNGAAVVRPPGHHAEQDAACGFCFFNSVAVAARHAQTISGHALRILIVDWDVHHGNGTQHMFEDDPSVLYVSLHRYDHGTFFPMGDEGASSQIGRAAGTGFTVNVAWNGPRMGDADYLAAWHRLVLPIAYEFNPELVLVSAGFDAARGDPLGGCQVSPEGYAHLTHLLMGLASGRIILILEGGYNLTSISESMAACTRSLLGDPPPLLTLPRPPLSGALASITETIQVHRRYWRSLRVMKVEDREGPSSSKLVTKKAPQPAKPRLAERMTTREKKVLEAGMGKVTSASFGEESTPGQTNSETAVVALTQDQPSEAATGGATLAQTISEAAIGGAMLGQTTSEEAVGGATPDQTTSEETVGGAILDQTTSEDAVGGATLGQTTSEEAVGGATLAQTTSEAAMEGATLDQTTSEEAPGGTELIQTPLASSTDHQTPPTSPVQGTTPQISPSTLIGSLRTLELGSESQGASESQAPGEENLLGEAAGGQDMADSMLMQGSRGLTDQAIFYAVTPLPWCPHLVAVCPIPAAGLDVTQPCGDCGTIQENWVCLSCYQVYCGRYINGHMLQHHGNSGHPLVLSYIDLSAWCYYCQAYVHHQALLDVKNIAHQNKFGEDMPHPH
How it was run: as §1

acetylated tubulin = assay: Measurement of acetylated tubulin in spleen after oral administration (Western blotting); type: in vivo; conditions: BALE/c mice, female, 30 mg/kg orally
Procedure: Compound A (compound of Example 36) and compound B (compound of Example 37) were each orally administered to BALE/c mice (female, Charles River Japan, 8-weeks old when used) at a dose of 30 mg/kg. Compound A and compound B were each suspended in 0.5% methyl cellulose solution, and the suspensions were each orally administered at a dose of 10 mL/kg. For control group, 0.5% methyl cellulose solution was administered. After administration, a part (about 30 mg) of the spleen was recovered into tube containing beads (Lysing Matrix I, Cat. 6918-100, MP Biomedicals), and cryopreserved at −80° C. until used.
0.5 mL RIPA buffer containing protease inhibitor (Cat. 25955-11, Nacalai tesque) was added to the spleen placed in Lysing Matrix I tube, and the spleen was crushed over 20 sec by FastPrep-24. The sample tube was centrifuged (15,000 rpm, 4° C.,) for 5 min, and the supernatant was transferred to another tube. […] The protein amount of the sample was measured using BCA protein assay kit (Cat. 23227, Pierce). […]
The membrane was immersed in blocking reagent (Cat. NYPBR01, TOYOBO) at room temperature for 1 hr, washed, and reacted with primary antibody overnight at 4° C. After washed, the membrane was reacted with secondary antibody at room temperature for 1 hr, and immersed in ECL prime detecting solution (Cat. RPN2232, GE), and the chemiluminescence was detected by luminoimage analyzer LAS3000. […]

| Compound | inhibition at 1 µM (HDAC1 enzyme) | inhibition at 1 µM (HDAC6 enzyme) | also measured |
| --- | --- | --- | --- |
| O=C(NC[C@H]1COCCN1C(=O)N1CCCC1CCO)c1ccc(-c2noc(C(F)(F)F)n2)cc1 (stereo partly drawn) [Example 305, N-(((3S)-4-((2-(2-hydroxyethyl)pyrrolidin-1-yl)carbonyl)morpholin-3-yl)methyl)-4-(5-(trifluoromethyl)-1,2,4-oxadiazol-3-yl)benzamide] | 5% | 99% | – |
| O=C(NC[C@H]1COCCN1C(=O)N1CCCC1CCO)c1ccc(-c2noc(C(F)(F)F)n2)cc1 (stereo partly drawn) [Example 306, N-(((3S)-4-((2-(2-hydroxyethyl)pyrrolidin-1-yl)carbonyl)morpholin-3-yl)methyl)-4-(5-(trifluoromethyl)-1,2,4-oxadiazol-3-yl)benzamide] | – | – | HDAC1 inhibitory rate (%) (1 μM) (HDAC1 enzyme): 5%; HDAC6 inhibitory rate (%) (1 μM) (HDAC6 enzyme): 88% |
| O=C(NC[C@H]1COCCN1C(=O)N1CCOCC1CO)c1ccc(-c2noc(C(F)(F)F)n2)cc1 (stereo partly drawn) [Example 310, N-(((3S)-4-((3-(hydroxymethyl)morpholin-4-yl)carbonyl)morpholin-3-yl)methyl)-4-(5-(trifluoromethyl)-1,2,4-oxadiazol-3-yl)benzamide] | – | 98% | HDAC1 inhibitory rate (%) (1 μM) (HDAC1 enzyme; 1 µM): 3% |
| O=C(NC[C@H]1COCCN1C(=O)N1CCOCC1CO)c1ccc(-c2noc(C(F)(F)F)n2)cc1 (stereo partly drawn) [Example 311, N-(((3S)-4-((3-(hydroxymethyl)morpholin-4-yl)carbonyl)morpholin-3-yl)methyl)-4-(5-(trifluoromethyl)-1,2,4-oxadiazol-3-yl)benzamide] | – | – | HDAC1 inhibitory rate (%) (1 μM) (HDAC1 enzyme; 1 µM): 7%; HDAC6 inhibitory rate (%) (1 μM) (HDAC6 enzyme): 96% |
| O=C(NC[C@H]1COCCN1C(=O)c1ccccc1)c1ccc(-c2noc(C(F)(F)F)n2)cc1 [compound A, N-(((3S)-4-benzoylmorpholin-3-yl)methyl)-4-(5-(trifluoromethyl)-1,2,4-oxadiazol-3-yl)benzamide] | – | – | acetylation of tubulin in spleen (protein expression level of acetylated tubulin, fold increase relative to 0.5% methyl cellulose solution administration group) (acetylated tubulin): increase in acetylated tubulin; also recorded: increased most acetylation of tubulin in spleen 8 hr after administration |
| O=C(NC[C@H]1COCCN1C(=O)c1cc(Cl)cc(Cl)c1)c1ccc(-c2noc(C(F)(F)F)n2)cc1 [compound B, N-(((3S)-4-(3,5-dichlorobenzoyl)morpholin-3-yl)methyl)-4-(5-(trifluoromethyl)-1,2,4-oxadiazol-3-yl)benzamide] | – | – | acetylation of tubulin in spleen (protein expression level of acetylated tubulin, fold increase relative to 0.5% methyl cellulose solution administration group) (acetylated tubulin): increase in acetylated tubulin; also recorded: increased most acetylation of tubulin in spleen 8 hr after administration |

Now from value to compound, other results behind:

| inhibition at 1 µM (HDAC1 enzyme) | inhibition at 1 µM (HDAC6 enzyme) | Compound | also measured |
| --- | --- | --- | --- |
| 9% | 98% | O=C(NC[C@H]1COCCN1C(=O)N1CCCC(F)(F)C1)c1ccc(-c2noc(C(F)(F)F)n2)cc1 [Example 307, N-(((3S)-4-((3,3-difluoropiperidin-1-yl)carbonyl)morpholin-3-yl)methyl)-4-(5-(trifluoromethyl)-1,2,4-oxadiazol-3-yl)benzamide] | – |
| 46% | 100% | Cc1oc2ccccc2c1C(=O)N1CCOC[C@@H]1CNC(=O)c1ccc(-c2noc(C(F)(F)F)n2)cc1 [Example 308, N-(((3S)-4-((2-methyl-1-benzofuran-3-yl)carbonyl)morpholin-3-yl)methyl)-4-(5-(trifluoromethyl)-1,2,4-oxadiazol-3-yl)benzamide] | – |
| 4% | 96% | O=C(NC[C@H]1COCCN1C(=O)N1CC2C(C1)C2(F)F)c1ccc(-c2noc(C(F)(F)F)n2)cc1 (stereo partly drawn) [Example 309, N-(((3S)-4-((6,6-difluoro-3-azabicyclo[3.1.0]hex-3-yl)carbonyl)morpholin-3-yl)methyl)-4-(5-(trifluoromethyl)-1,2,4-oxadiazol-3-yl)benzamide] | – |

From US10081624B2, “Heterocyclic compound” (Takeda Pharmaceutical Company Limited, priority 2014, dated 2018)
